Data on three compounds can be found in PubChem BioAssay (NCI).

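Exposure lasted 48 hours, with cells grown in 96-well plates and compounds tested at five concentrations. The concentration for 50% growth inhibition is given as GI50. TGI marks complete inhibition of growth.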

Test systems include HCT-116 colon; UACC-257 melanoma; SNB-19 CNS; SK-OV-3 ovarian; A549 NSCLC; HOP-92 NSCLC; SK-MEL-28 melanoma; NCI-H522 lung; UACC-62 melanoma; A498 renal.
What all share (assay): inhibition of tumour cell growth, NCI panel, 48 h

Consider `COC(NC(N)=O)C(=O)O` (stereo not given), for which the TGI in the assay with HCT-116 colon, in the assay on UACC-257 melanoma, in the assay with SNB-19 CNS, in the assay on SK-OV-3 ovarian, with A549 NSCLC and in the assay on HOP-92 NSCLC was greater than 100 µM each time. The TGI with SK-MEL-28 melanoma, with NCI-H522 lung, in the assay on UACC-62 melanoma and in the assay with A498 renal was greater than 100 µM in each case.

For the compound `COc1cc(-c2nn(-c3cccc(NC(=O)NCCNS(=O)(=O)c4ccc(Cl)cc4)c3)cc2-c2ccncc2)ccc1Cl`, the GI50 in the assay with HCT-116 colon was 0.381 µM; with UACC-257 melanoma, 0.541 µM; in the assay with SNB-19 CNS it was 1.16 µM; in the assay with SK-OV-3 ovarian it was 1.85 µM; with A549 NSCLC, 1.93 µM; with HOP-92 NSCLC, 0.886 µM. Also, the GI50 with SK-MEL-28 melanoma was 1.48 µM; in the assay on NCI-H522 lung it was 0.311 µM; with UACC-62 melanoma, 0.499 µM; in the assay with A498 renal, 0.578 µM. In addition, the TGI in the assay on HCT-116 colon was 2.47 µM; in the assay with UACC-257 melanoma, 3.34 µM; in the assay on SNB-19 CNS, greater than 100 µM; in the assay on SK-OV-3 ovarian, 17.5 µM; with A549 NSCLC it was 37.4 µM; in the assay on HOP-92 NSCLC it was 5.45 µM. In addition, the TGI was 13.2 µM in the assay on SK-MEL-28 melanoma, 1.35 µM in the assay on NCI-H522 lung, 2.39 µM in the assay with UACC-62 melanoma and 4.31 µM in the assay with A498 renal.

Take `O=C1OC(c2ccccc2)(c2ccccc2)c2ccc3ccc(F)cc3c21`: the TGI in the assay with HCT-116 colon, with UACC-257 melanoma, in the assay with SNB-19 CNS, in the assay with SK-OV-3 ovarian, in the assay on A549 NSCLC and in the assay on HOP-92 NSCLC was greater than 100 µM each time. For the same compound, the TGI in the assay on SK-MEL-28 melanoma, in the assay on NCI-H522 lung, in the assay on UACC-62 melanoma and in the assay with A498 renal was greater than 100 µM throughout.
